One data set relates to gastric acid secretion. Description: Inhibitory effect on gastric acid secretion (pylorus ligation). The following applies: Rattus norvegicus, po, rats; total acidity of gastric juice 4 hours after pylorus ligation. The data set is classed as in vivo, male Wistar rats. The procedure: The inhibitory effect of the present compounds [I] on gastric acid secretion was tested by using male Wistar rats, weighing about 200 g, in groups of five. To these rats which had been fasted overnight, the test compounds were orally administered in a series of appropriately selected doses ranging from 1 to 100 mg/kg. Then, the pyloric end of the stomach was ligated. After the lapse of 4 hours, the total acidity of gastric juice of each rat was measured. More specifically, the test compounds were suspended in a 0.5% aqueous solution of carboxymethyl cellulose and administered to the rats 30 minutes before ligation. Gastric juice was collected by sacrificing and laparotomizing each rat. The total acidity of gastric juice was determined by titrating the gastric juice with a 0.1 N aqueous solution of sodium hydroxide until a pH of 7.0 was reached. As a control experiment, the total acidity of gastric juice of an untreated group was determined in the same manner as described above. The inhibitory effect of the test compounds on gastric acid secretion was evaluated on the basis of the dose (in mg/kg) required to inhibit gastric acid secretion, i.e. the total acidity of gastric juice, by 50% (hereinafter referred to as ED50). The ED50 value of each test compound was determined by calculating the difference in total acidity between the untreated group and each treated group, dividing the difference by the total acidity of the untreated group to obtain the degree of inhibition, and constructing a dose-response curve on the basis of the data thus obtained. For purposes of comparison, the ED50 values of Omeprazole and Compounds α and β were determined in the same manner as described above and are also shown in Table 3.

A further data set in a line: physchem. The following applies: solid. The data set is classed as physicochemical. As to the method: The storage stability of the present compounds [I] was tested by allowing each test compound to stand under severe conditions (i.e., a temperature of 60° C. and a relative humidity of 75%) for 8 days and then determining its percentage of residue according to a thin-layer densitometric method (Bunseki Kagaku, Vol. 23, No. 9, p. 1016, 1974). More specifically, upon completion of the severe treatment, 100 μg of each test compound was applied to a thin-layer plate and this plate was developed with a chloroform-ethanol mixture (volume ratio 10:1). The thin-layer plate used for this purpose was a TLC Plate Aluminum Oxide 60F254 (manufactured by Merck Co.; 0.25 mm in thickness and 20 cm×20 cm in size), and it was developed over a distance of 15 cm. Then, using a Shimazu Two-wavelength Chromatoscanner CS-910 (manufactured by Shimazu Seisakusho), the resulting spot was analyzed at a wavelength of 300-315 nm.
For purposes of comparison, the percentages of residue of Omeprazole (at a measuring wavelength of 300 nm) and Compounds α and β (at a measuring wavelength of 310 nm) were determined in the same manner as described above and are also shown in Table 1.

For the next data set, the target named is T1, (H^+ +K^+) ATPase (Sus scrofa, UniProt P19156).
T1 construct: prepared from fresh pieces of the fundus ventriculi of hog stomach; from tissue; host or cells: hog stomach, fundus ventriculi (fresh pieces), prepared by the method of Saccomani et al., J. Biol. Chem. 1976
T1 sequence (P19156 2-1034 limits assumed): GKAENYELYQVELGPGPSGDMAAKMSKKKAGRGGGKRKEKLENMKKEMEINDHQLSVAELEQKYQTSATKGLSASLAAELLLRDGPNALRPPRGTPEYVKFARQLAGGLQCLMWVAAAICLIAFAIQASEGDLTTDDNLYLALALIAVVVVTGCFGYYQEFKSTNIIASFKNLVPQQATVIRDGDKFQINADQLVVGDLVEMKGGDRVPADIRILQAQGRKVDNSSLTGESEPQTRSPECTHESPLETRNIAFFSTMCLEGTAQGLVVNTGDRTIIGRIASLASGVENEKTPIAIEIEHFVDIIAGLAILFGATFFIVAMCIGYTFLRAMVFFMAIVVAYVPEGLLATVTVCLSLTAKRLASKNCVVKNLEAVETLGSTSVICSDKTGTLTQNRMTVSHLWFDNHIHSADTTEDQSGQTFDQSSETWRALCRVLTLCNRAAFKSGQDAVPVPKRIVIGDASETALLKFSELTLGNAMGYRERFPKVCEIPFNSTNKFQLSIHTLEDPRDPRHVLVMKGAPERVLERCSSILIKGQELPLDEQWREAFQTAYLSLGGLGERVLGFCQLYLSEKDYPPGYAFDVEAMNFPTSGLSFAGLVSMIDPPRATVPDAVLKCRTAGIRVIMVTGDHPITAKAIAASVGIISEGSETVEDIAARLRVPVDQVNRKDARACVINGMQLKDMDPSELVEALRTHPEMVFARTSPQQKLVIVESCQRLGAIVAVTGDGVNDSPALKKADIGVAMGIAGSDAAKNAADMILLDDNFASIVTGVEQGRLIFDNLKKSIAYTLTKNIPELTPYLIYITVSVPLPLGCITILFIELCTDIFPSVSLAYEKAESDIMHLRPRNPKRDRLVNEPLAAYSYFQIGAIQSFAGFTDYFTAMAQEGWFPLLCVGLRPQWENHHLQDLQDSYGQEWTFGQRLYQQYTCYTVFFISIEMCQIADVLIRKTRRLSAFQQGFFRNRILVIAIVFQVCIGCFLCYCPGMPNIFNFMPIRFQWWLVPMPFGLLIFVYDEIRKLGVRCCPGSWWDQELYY
T1 sequence (P18434 whole entry partner): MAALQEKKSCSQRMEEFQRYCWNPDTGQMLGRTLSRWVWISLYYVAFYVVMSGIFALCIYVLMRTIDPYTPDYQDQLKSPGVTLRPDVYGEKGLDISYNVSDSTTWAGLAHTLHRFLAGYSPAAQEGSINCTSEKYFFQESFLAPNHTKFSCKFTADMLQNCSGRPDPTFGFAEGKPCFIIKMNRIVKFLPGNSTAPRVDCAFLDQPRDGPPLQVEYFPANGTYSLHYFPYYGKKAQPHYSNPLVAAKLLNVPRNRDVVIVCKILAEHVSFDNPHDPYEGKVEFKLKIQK
Description: Inhibitory effect on (H^+ +K^+) ATPase. The data set is classed as biochemical, hog. The following applies: at 1 × 10^-3 M; in vitro; read-out: Degree of inhibition, Inhibitory effect on (H^+ + K^+) ATPase. The procedure:
The inhibitory effect of the present compounds [I] on (H^+ +K^+) ATPase was tested by adding each test compound to a solution containing 300-500 μg, on a protein basis, of the enzyme, incubating this reaction mixture at 35°-37° C. for 5-30 minutes, and then determining the residual activity of (H^+ +K^+) ATPase present in the reaction mixture. The test compounds were dissolved in methanol or ethanol in advance and added to the reaction system in such an amount as to give a concentration of 1×10^-3 M. The (H^+ +K^+) ATPase used in this test was prepared from fresh pieces of the fundus ventriculi of hog stomach according to the method of Saccomani et al. (The Journal of Biological Chemistry, Vol. 251, No. 23, p. 7690, 1976). The residual activity of (H^+ +K^+) ATPase was determined by mixing magnesium chloride and potassium chloride with the incubated reaction mixture, adding adenosine triphosphate thereto, incubating this assay mixture 37° C. for 5-15 minutes to effect an enzymic reaction, and colorimetrically determining the liberated inorganic phosphate by use of an ammonium molybdate reagent. The initial concentrations of magnesium chloride, potassium chloride and adenosine triphosphate were adjusted to 2 mM, 20 mM and 2 mM, respectively. Colorimetric determinations were made at a wavelength of 360-400 nm. As a control experiment, the residual activity of (H^+ +K^+) ATPase was determined by repeating the above-described procedure without adding any test compound to the reaction system. In this table, the inhibitory effect is indicated by the degree of inhibition which was obtained by calculating the difference between the measured value obtained in the control experiment and the measured value resulting from the addition of each test compound and expressing this difference as a percentage of the measured value obtained in the control experiment. For purposes of comparison, the inhibitory effect of Omeprazole and Compounds α and β on (H^+ +K^+) ATPase was tested in the same manner as described above and the results thus obtained are also shown in Table 2.

Like-named read-outs stand apart in the source and are kept apart here.

Usually ED50 stands for the dose at which the effect has come halfway, by size or by number of responders. A higher ED50 goes with a need for a large dose. Broadly, the inhibition is the share of the control response that was lost under treatment.

In turn, `COc1ccc2[nH]c([S+]([O-])Cc3ncc(C)c(C)c3C)nc2n1` (stereo not drawn) [Example 3, 2-[2-(3,4,5-Trimethyl)pyridylmethylsulfinyl]-5-methoxyimidazo[4,5-b]pyridine] had an ED50 with gastric acid secretion of 9 mg/kg. The molecule also gave a remaining at 192 h in the data set “physchem” (75% rh) of 99%. Also, the inhibition at 1000 µM on (H^+ +K^+) ATPase turned out to be 100%.
The matching figures for `Cc1cnc(C[S+]([O-])c2nc3nc(OCC4CC4)ccc3[nH]2)c(C)c1` (stereo not drawn) [Example 23, 2-[2-(3,5-Dimethyl)pyridylmethylsulfinyl]-5-cyclopropylmethyloxyimidazo[4,5-b]pyridine]: 12 mg/kg, 95% and 100%.
The matching figures for `COc1ccnc(C[S+]([O-])c2nc3nc(OCC(C)C)ccc3[nH]2)c1` (stereo not drawn) [Example 22, 2-[2-(4-Methoxy)pyridylmethylsulfinyl]-5-isobutyloxyimidazo[4,5-b]pyridine]: 15 mg/kg, 57% and 94.6%.
In the data set with gastric acid secretion, `Cc1ccnc(C[S+]([O-])c2nc3nc(OCC(F)(F)C(F)(F)C(F)(F)F)ccc3[nH]2)c1` (stereo not drawn) [Example 30, 2-[2-(4-Methyl)pyridylmethylsulfinyl]-5-(2,2,3,3,4,4,4-heptafluorobutyloxy)imidazo[4,5-b]pyridine] registered an ED50 of 19 mg/kg. For the same molecule, in “physchem” (after treatment at 60° C. and 75% RH for 8 days, read-out: Storage stability, Percentage of residue), the remaining at 192 h worked out at 73%. Further, the inhibition at 1000 µM on (H^+ +K^+) ATPase is 92.1%.
Regarding `CCCOc1ccc2[nH]c([S+]([O-])Cc3ncc(C)cc3C)nc2n1` (stereo not drawn) [Example 18, 2-[2-(3,5-Dimethyl)pyridylmethylsulfinyl]-5-n-propyloxyimidazo[4,5-b]pyridine], the 50% effect level in the data set on gastric acid secretion (ED50) was put at a dose of 19 mg/kg. In “physchem” (75% rh), this molecule had a remaining at 192 h of 85%. Also, the inhibition at 1000 µM at (H^+ +K^+) ATPase came out at 92.3%.
The matching figures for `COc1ccc2[nH]c([S+]([O-])Cc3cc(OC)c(C)cn3)nc2n1` (stereo not drawn) [Example 4, 2-[2-(4-Methoxy-5-methyl)pyridylmethylsulfinyl]-5-methoxyimidazo[4,5-b]pyridine]: 15 mg/kg, 98% and 100%.
In turn, `COc1ccnc(C[S+]([O-])c2nc3nc(OC(C)C)ccc3[nH]2)c1` (stereo not drawn) [Example 17, 2-[2-(4-Methoxy)pyridylmethylsulfinyl]-5-isopropyloxyimidazo[4,5-b]pyridine] returned a 50% effective dose (ED50) with gastric acid secretion of 17 mg/kg. For the same molecule, the remaining at 192 h in the data set “physchem” (75% rh) came out at 75%. Also, the inhibition at 1000 µM on (H^+ +K^+) ATPase came out at 93.7%.
The matching figures for `COc1c(C)cnc(C[S+]([O-])c2nc3nc(OC(C)C)ccc3[nH]2)c1C` (stereo not drawn) [Example 15, 2-[2-(3,5-Dimethyl-4-methoxy)pyridylmethylsulfinyl]-5-isopropyloxyimidazo[4,5-b]pyridine]: 13 mg/kg, 87% and 98.5%.
With `COc1ccc2[nH]c([S+]([O-])Cc3ncc(C)c(OC)c3C)nc2n1` (stereo not drawn) [Example 2, 2-[2-(3,5-Dimethyl-4-methoxy)pyridylmethylsulfinyl]-5-methoxyimidazo[4,5-b]pyridine], the ED50 with gastric acid secretion amounted to 18 mg/kg. The same molecule returned a remaining at 192 h in the data set “physchem” (75% rh) of 77%. At (H^+ +K^+) ATPase, the inhibition at 1000 µM was determined as 96.6%.
The matching figures for `CCOc1ccc2[nH]c([S+]([O-])Cc3ncc(C)cc3C)nc2n1` (stereo not drawn) [Example 14, 2-[2-(3,5-Dimethyl)pyridylmethylsulfinyl]-5-ethoxyimidazo[4,5-b]pyridine]: 15 mg/kg, 93% and 100%.
In the data set with gastric acid secretion, `COc1c(C)cnc(C[S+]([O-])c2nc3ncc(OCCCC4CCCC4)cc3[nH]2)c1C` (stereo not drawn) [Example 36, 2-[2-(3,5-Dimethyl-4-methoxy)pyridylmethylsulfinyl]-6-(3-cyclopentylpropyloxy)imidazo[4,5-b]pyridine] returned a 50% effective dose (ED50) of 19 mg/kg. The molecule further yielded a remaining at 192 h in “physchem” (75% rh) of 68%. In addition, at (H^+ +K^+) ATPase, the inhibition at 1000 µM amounted to 93%.
In turn, `Cc1cnc(C[S+]([O-])c2nc3nc(OC(C)C)ccc3[nH]2)c(C)c1` (stereo not drawn) [Example 10, 2-[2-(3,5-Dimethyl)pyridylmethylsulfinyl]-5-isopropyloxyimidazo[4,5-b]pyridine] had an ED50 in the data set with gastric acid secretion of 19 mg/kg. In addition, the remaining at 192 h in “physchem” (75% rh) is 92%. In addition, the inhibition at 1000 µM on (H^+ +K^+) ATPase was 90%.
The matching figures for `COc1cc(C[S+]([O-])c2nc3nccc(OC)c3[nH]2)ncc1C` (stereo not drawn) [Example 7, 2-[2-(4-Methoxy-5-methyl)pyridylmethylsulfinyl]-7-methoxyimidazo[4,5-b]pyridine]: 22 mg/kg, 53% and 98.8%.
The matching figures for `CCCCOc1ccc2[nH]c([S+]([O-])Cc3ncc(C)c(C)c3C)nc2n1` (stereo not drawn) [Example 12, 2-[2-(3,4,5-Trimethyl)pyridylmethylsulfinyl]-5-n-butyloxyimidazo[4,5-b]pyridine]: 21 mg/kg, 76% and 98.5%.
`COc1c(C)cnc(C[S+]([O-])c2nc3nc(OCC(C)C)ccc3[nH]2)c1C` (stereo not drawn) [Example 20, 2-[2-(3,5-Dimethyl-4-methoxy)pyridylmethylsulfinyl]-5-isobutyloxyimidazo[4,5-b]pyridine]: the 50% effect level with gastric acid secretion (ED50) was put at a dose of 10 mg/kg. The molecule also yielded a remaining at 192 h in the data set “physchem” (75% rh) of 72%. Further, on (H^+ +K^+) ATPase, the inhibition at 1000 µM turned out to be 100%.
The matching figures for `Cc1cnc(C[S+]([O-])c2nc3nc(OCCC(C)C)ccc3[nH]2)c(C)c1` (stereo not drawn) [Example 34, 2-[2-(3,5-Dimethyl)pyridylmethylsulfinyl]-5-(3-methylbutyloxy)imidazo[4,5-b]pyridine]: 14 mg/kg, 76% and 98.5%.
The matching figures for `COc1ccnc(C[S+]([O-])c2nc3nc(OCC4CC4)ccc3[nH]2)c1` (stereo not drawn) [Example 25, 2-[2-(4-Methoxy)pyridylmethylsulfinyl]-5-cyclopropylmethyloxyimidazo[4,5-b]pyridine]: 18 mg/kg, 51% and 92.9%.
Take `COc1cc(C[S+]([O-])c2nc3nc(OC(C)C)ccc3[nH]2)ncc1C` (stereo not drawn) [Example 16, 2-[2-(4-Methoxy-5-methyl)pyridylmethylsulfinyl]-5-isopropyloxyimidazo[4,5-b]pyridine]: the 50% effective dose (ED50) in the data set on gastric acid secretion worked out at 16 mg/kg. Moreover, the remaining at 192 h in “physchem” (75% rh) came out at 90%. The inhibition at 1000 µM on (H^+ +K^+) ATPase turned out to be 96.1%.
On to `COc1cc(C[S+]([O-])c2nc3nc(OCC(C)C)ccc3[nH]2)ncc1C` (stereo not drawn) [Example 21, 2-[2-(4-Methoxy-5-methyl)pyridylmethylsulfinyl]-5-isobutyloxyimidazo[4,5-b]pyridine], for which the ED50 in the data set with gastric acid secretion came out at 13 mg/kg. This molecule yielded a remaining at 192 h in the data set “physchem” (75% rh) of 69%. For the same molecule, the inhibition at 1000 µM on (H^+ +K^+) ATPase came to 97.4%.

Source of the values: US4808596A, “Imidazo[4,5-b]pyridine compounds and pharmaceutical compositions containing same” (Tokyo Tanabe Company, Ltd., priority 1986, dated 1989).
